Tested on: CD8+ T cells
Assay: IFN-gamma ELISpot analysis of T cells stimulated with neopeptide-loaded autologous CD40-activated B cells
Assay type: cell-based, human
Conditions: T cells from HLA-A0201-positive healthy proband, weekly stimulation

Sequence | reactivity (IFN-gamma ELISpot) (day 35) | reactivity (IFN-gamma ELISpot) (day 28)
FLSASHFLL [peptide #15, HLA-A0201-restricted neopeptide encoded by mutated cMNR] | 1123 specific cells/1,000,000 cells | –
TLSPGWSAV [peptide #21, HLA-A0201-restricted neopeptide encoded by mutated cMNR] | 733 specific cells/1,000,000 cells | –
SLYKFSPFPL [peptide #16, HLA-A0201-restricted neopeptide encoded by mutated cMNR] | – | 1760 specific cells/1,000,000 cells
